What was measured:
Peregrin (Homo sapiens) = target: T1, Peregrin (Homo sapiens) (UniProt P55201); experiment: Selectivity interaction (Human bromodomain panel (DSF assay)) EUB0000233b BRPF1
T1 sequence (whole entry): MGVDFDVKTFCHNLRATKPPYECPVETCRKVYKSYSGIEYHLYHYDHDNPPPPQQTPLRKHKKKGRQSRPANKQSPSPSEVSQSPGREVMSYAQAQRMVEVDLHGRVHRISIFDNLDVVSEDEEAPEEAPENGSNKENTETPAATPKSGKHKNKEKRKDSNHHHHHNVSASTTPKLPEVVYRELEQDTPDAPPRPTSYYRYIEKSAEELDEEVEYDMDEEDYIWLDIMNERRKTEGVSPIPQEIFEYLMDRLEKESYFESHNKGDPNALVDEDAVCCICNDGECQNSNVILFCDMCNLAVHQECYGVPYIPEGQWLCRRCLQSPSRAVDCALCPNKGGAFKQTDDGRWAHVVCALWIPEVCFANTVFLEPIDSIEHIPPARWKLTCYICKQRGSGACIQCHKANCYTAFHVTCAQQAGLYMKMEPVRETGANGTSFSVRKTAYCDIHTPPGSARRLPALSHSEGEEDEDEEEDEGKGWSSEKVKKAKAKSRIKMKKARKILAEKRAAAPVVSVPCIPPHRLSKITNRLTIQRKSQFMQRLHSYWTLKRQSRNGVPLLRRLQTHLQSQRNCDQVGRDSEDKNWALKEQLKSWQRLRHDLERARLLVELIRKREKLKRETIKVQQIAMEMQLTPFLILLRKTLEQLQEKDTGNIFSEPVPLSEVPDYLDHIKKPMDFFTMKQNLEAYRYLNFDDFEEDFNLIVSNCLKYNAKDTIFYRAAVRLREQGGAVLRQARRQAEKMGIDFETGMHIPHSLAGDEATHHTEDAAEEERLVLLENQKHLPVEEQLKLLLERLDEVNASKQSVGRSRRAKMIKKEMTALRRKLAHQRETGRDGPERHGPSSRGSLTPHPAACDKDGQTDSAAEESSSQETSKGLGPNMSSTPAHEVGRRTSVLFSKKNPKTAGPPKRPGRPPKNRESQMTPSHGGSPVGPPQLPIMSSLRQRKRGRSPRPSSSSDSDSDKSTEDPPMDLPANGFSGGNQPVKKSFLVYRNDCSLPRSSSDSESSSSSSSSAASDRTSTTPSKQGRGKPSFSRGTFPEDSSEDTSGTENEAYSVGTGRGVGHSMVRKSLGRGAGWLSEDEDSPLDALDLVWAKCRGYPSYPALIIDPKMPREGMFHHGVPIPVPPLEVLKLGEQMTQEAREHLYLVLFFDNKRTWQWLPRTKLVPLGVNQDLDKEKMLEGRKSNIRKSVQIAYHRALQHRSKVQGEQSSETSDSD

[1] = target: Glycogen synthase kinase-3 beta (Homo sapiens, UniProt P49841); experiment: Selectivity interaction (Rxn Biology Kinase assay) EUB0001632a GSK3B; details: at 10 µM
Sequence of Glycogen synthase kinase-3 beta (P49841 whole entry, looked up): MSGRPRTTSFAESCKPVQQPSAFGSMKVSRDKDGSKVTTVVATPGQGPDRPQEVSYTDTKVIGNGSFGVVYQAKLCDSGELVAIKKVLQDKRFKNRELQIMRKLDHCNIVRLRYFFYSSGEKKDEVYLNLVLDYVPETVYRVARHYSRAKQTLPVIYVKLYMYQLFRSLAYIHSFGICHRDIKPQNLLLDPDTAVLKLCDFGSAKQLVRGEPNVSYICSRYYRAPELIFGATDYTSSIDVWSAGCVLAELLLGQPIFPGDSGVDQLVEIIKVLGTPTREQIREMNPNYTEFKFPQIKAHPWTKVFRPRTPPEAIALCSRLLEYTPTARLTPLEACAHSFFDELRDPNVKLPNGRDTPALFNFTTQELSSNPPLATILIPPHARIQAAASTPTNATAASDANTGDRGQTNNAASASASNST

[2] = target: Vascular endothelial growth factor receptor 1 (Homo sapiens) (UniProt P17948); experiment: Selectivity interaction (KinomeScan (DiscoverX)) EUB0000618a FLT1; details: at 10 µM
Sequence of Vascular endothelial growth factor receptor 1 (Homo sapiens) (P17948 whole entry): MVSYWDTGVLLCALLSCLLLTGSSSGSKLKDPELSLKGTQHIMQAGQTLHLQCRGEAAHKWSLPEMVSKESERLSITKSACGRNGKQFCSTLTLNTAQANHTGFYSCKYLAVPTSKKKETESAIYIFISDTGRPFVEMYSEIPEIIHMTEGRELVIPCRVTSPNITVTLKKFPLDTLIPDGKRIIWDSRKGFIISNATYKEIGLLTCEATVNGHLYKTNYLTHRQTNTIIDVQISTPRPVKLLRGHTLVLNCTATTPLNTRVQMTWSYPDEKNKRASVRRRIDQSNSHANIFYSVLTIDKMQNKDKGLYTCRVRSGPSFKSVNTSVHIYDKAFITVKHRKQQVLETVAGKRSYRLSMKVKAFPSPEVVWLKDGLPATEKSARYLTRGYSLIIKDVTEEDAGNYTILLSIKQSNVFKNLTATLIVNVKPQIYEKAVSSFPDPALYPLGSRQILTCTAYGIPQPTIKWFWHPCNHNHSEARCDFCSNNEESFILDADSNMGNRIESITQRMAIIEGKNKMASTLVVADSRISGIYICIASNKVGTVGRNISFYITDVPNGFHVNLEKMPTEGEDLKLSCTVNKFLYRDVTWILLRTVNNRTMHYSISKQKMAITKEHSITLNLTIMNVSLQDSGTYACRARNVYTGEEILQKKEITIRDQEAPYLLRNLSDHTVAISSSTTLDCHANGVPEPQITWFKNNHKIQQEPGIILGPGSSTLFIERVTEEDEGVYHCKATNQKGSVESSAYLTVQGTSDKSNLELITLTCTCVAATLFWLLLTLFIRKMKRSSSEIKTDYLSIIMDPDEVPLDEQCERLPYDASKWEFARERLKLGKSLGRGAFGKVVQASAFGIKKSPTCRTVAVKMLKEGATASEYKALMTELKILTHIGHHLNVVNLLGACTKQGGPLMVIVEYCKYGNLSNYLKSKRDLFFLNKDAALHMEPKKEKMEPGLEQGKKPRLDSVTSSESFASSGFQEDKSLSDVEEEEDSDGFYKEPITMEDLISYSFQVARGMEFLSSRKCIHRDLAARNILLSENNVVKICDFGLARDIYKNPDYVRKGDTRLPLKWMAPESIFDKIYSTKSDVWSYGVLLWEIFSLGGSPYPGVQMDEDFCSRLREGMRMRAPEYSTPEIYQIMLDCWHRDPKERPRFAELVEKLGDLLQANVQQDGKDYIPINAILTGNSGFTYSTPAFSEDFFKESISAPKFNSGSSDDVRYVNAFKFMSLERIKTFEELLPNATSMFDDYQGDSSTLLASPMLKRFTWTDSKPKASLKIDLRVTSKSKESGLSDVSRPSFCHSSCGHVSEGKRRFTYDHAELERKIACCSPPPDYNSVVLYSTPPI

[3] = target: T2, Interleukin-1 receptor-associated kinase 3 (Homo sapiens) (UniProt Q9Y616); experiment: Selectivity interaction (ActivX KiNativ screen (kinase selectivity in THP-1 cell lysates)) EUB0000639a IRAK3; format: subcellular; details: lysate, at 0.04 µM
T2 sequence (whole entry): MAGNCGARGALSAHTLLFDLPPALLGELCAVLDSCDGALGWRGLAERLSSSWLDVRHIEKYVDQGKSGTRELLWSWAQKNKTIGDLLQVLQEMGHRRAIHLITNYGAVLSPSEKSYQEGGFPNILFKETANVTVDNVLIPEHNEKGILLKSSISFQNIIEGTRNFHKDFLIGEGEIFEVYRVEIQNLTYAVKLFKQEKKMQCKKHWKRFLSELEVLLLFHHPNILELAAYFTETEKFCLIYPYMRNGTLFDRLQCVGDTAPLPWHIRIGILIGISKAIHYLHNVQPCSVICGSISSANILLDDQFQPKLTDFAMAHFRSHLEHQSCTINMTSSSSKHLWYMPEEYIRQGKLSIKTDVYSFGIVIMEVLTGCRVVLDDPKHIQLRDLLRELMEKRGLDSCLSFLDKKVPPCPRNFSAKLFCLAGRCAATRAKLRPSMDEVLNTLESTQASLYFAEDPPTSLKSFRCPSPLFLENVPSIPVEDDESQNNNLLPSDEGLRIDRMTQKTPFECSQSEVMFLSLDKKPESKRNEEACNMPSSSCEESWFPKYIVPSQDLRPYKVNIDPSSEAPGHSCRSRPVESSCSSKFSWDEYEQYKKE

[4] = target: Mitogen-activated protein kinase 3 (Homo sapiens, UniProt P27361); details: at 10 µM
Sequence of Mitogen-activated protein kinase 3 (P27361 whole entry, the tested form may be a part): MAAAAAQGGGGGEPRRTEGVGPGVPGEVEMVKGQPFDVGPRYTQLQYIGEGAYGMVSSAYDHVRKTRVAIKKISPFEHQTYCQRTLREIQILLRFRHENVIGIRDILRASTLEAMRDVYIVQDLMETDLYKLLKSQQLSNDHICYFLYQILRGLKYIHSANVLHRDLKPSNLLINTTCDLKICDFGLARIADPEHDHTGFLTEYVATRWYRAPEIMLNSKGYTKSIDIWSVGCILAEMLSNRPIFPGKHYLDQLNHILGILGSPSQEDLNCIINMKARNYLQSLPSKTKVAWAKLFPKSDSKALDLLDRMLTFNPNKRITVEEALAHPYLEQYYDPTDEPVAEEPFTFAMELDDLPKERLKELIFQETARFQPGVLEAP

[5] = target: T3, Discoidin domain-containing receptor 2 (Homo sapiens) (UniProt Q16832); experiment: Selectivity interaction (KinomeScan (DiscoverX)) EUB0000092b DDR2; details: at 10 µM
T3 sequence (whole entry): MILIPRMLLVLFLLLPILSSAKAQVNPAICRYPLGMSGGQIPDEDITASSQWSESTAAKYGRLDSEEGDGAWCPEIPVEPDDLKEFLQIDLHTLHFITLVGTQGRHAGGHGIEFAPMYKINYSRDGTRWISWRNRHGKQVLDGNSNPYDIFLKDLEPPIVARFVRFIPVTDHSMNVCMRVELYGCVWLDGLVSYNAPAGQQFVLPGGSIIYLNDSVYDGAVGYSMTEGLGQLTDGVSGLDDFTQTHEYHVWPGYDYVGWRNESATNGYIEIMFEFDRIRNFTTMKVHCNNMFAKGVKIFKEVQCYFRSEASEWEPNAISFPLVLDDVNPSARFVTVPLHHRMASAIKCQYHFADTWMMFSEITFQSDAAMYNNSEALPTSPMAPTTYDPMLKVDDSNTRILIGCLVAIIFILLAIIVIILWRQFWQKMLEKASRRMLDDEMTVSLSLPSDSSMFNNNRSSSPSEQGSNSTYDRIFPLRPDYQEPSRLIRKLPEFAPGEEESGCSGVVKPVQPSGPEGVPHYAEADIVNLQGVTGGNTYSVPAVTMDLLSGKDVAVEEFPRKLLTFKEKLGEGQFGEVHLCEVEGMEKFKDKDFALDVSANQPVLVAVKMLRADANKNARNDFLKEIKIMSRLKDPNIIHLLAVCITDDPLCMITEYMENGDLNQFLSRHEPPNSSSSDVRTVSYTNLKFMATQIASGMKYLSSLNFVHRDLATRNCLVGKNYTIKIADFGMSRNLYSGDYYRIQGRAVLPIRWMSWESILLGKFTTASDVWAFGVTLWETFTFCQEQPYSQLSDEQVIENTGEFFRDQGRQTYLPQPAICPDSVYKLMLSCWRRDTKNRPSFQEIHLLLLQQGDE

`CN(C)CCCOc1ccc(-c2cc(NCCCn3cccn3)nc(S(C)(=O)=O)n2)cc1` gave a dTM (Peregrin (Homo sapiens)) of less than 2 K.
`Cn1cc(-n2cnc3c(NCc4nc5cc(Cl)c(Cl)cc5[nH]4)nc(N4CCOCC4)nc32)cn1` gave a % of inhibition [1] of 96.5%.
`O[C@H]1CC[C@H](Nc2ncc3nc(Nc4c(F)cc(F)cc4F)n([C@H]4CCOC4)c3n2)CC1` showed a % of control [2] of 86%.
`CC[C@@H]1[C@H](F)C(=O)N[C@@H]1COc1nccc2cc(C(N)=O)c(OC)cc12` [ZIMLOVISERTIB] showed a % of inhibition [3] of -1.7%.
`CCN(CC)CCCCNc1ncc2cc(-c3cc(OC)cc(OC)c3)c(NC(=O)NC(C)(C)C)nc2n1` was tested, and the % of control [4] was 100%.
Work on `CCC(=O)N1CCN(c2ccc(-n3c(=O)ccc4cnc5ccc(-c6cnc7ccccc7c6)cc5c43)cc2C(F)(F)F)CC1` yielded a % of control [5] of 100%.
